Data set [1] has as its system non-iron-overloaded bile duct-cannulated rats. The note with it: rats po 150 µmol/kg, cited from earlier work; for relative percentages of the iron excreted in the bile and urine [bile/urine]: Cremophor RH-40/water.
For data set [2], the system named is iron overloaded primates. The conditions noted are these: cited from earlier work.
For data set [3], the system named is rats. The note with it: cited from earlier work.
The conditions of data set [4]: cited from earlier work.
The nature of data set [5]: Ligand-plasma binding, rodent plasma. It is filed as in vitro ADME. The note with it: 37 °C, 4 h, 3,000 MWCO filter.
Data set [6] relates to rats with normal iron stores. The note with it: for BUN / SCr: rats po 237 µmol/kg b.i.d. × 7 d (6: euthanized day 8).
The nature of data set [7]: Ligand-plasma binding, primate plasma. It is filed as in vitro ADME. The note with it: 37 °C, 4 h, 3,000 MWCO filter.
In data set [8] the test system is iron overloaded primates. The note with it: primates po 75 µmol/kg, monosodium salt.
The subject of data set [9] is patients. The note with it: clinical trial, twice daily dosing; cited from earlier work.

“Also recorded” adds a separate entry of the source. Like-named read-outs stand apart in the source and are kept apart here. Where only a bound is given, the exact number is not on record here.

As to `C[C@]1(C(=O)[O-])CSC(c2ncccc2O)=N1.[Na+]` [Compound 1, (S)-4,5-dihydro-2-(3-hydroxy-2-pyridinyl)-4-methyl-4-thiazolecarboxylic acid], in data set [1], the “relative percentages of the iron excreted in the bile and urine [bile/urine]” value is recorded as 93/7; the “time at which deferration had returned to baseline” value is given as no more than 12 h. Also, in [2] (primates po 150 µmol/kg), the “relative percentages of the iron excreted in the feces and urine [feces/urine]” value (“relative percentages … [feces/urine]” for short) is given as 78/22. The nephrotoxicity result in data set [3] (rats po once daily 384 µmol/kg/d) is “severely nephrotoxic”.
For the compound `C[C@]1(C(=O)[O-])CSC(c2ccccc2O)=N1.[Na+]` [Compound 2, (S)-4,5-dihydro-2-(2-hydroxyphenyl)-4-methyl-4-thiazolecarboxylic acid], in [4], the gastrointestinal toxicity entry is reported as “serious gastrointestinal (GI) problems” and the nephrotoxicity result is on record as “not overtly nephrotoxic”. In addition, in data set [1], the “relative percentages of the iron excreted in the bile and urine [bile/urine]” value is given as 100/0; the “time at which deferration had returned to baseline” value is no more than 12 h. In data set [2] (primates po 75 µmol/kg), the “relative percentages … [feces/urine]” value is given as 76/24.
`COCCOCCOc1ccnc(C2=N[C@@](C)(C(=O)[O-])CS2)c1O.[Na+]` [Compound 10, (S)-4,5-dihydro-2-[3-hydroxy-4-(3,6-dioxaheptyloxy)-2-pyridinyl]-4-methyl-4-thiazolecarboxylic acid]: the “binding of the ligand to plasma” value in data set [5] is “little, if any, binding”. Besides, in data set [6], the BUN entry is recorded as “well within the normal range” and the SCr entry is given as “well within the normal range”. For the same compound, the “binding of the ligand to plasma” value in [7] is on record as “little, if any, binding”.
Turning to `C[C@]1(C(=O)[O-])CSC(c2ncc(O)cc2O)=N1.[Na+]` [Compound 6, (S)-4,5-dihydro-2-(3,5-dihydroxy-2-pyridinyl)-4-methyl-4-thiazolecarboxylic acid], in data set [8], the “relative percentages … [feces/urine]” value is 58/42. The “urinary Kim-1” value in data set [6] (rats po 237 µmol/kg b.i.d., until day 5) is recorded as less than 50 ng/kg/24h.
As for `C[C@]1(C(=O)[O-])CSC(c2ccc(O)cc2O)=N1.[Na+]` [Compound 3, (S)-2-(2,4-dihydroxyphenyl)-4,5-dihydro-4-methyl-4-thiazolecarboxylic acid], the “renal findings in patients” value in [9] was “increases in blood urea nitrogen (BUN) and serum creatinine (SCr) levels; also recorded: induced proximal tubule nephrotoxicity”.
Consider `COCCOCCOc1cnc(C2=N[C@@](C)(C(=O)[O-])CS2)c(O)c1.[Na+]` [Compound 8, (S)-4,5-dihydro-2-[3-hydroxy-5-(3,6-dioxaheptyloxy)-2-pyridinyl]-4-methyl-4-thiazolecarboxylic acid], for which, in [6], the BUN entry is “well within the normal range” and the SCr result is “well within the normal range”.
For `COCCOCCOCCOc1ccc(C2=N[C@@](C)(C(=O)O)CS2)c(O)c1` [Compound 4, (S)-4,5-dihydro-2-[2-hydroxy-4-(3,6,9-trioxadecyloxy)]-4-methyl-4-thiazolecarboxylic acid], in data set [3] (rats po once or twice daily), the nephrotoxicity result is “virtually nephrotoxicity-free”.
